Data published in patent US10793563B2, “GCN2 inhibitors and uses thereof” (Merck Patent GmbH, priority 2018, dated 2020).

Tests used:
GCN2 kinase = GCN2 kinase (Homo sapiens (Human), UniProt Q9P2K8); assay: GCN2 Enzyme Inhibition Assay (Transcreener ADP2 fluorescence polarization); format: biochemical; conditions: 280 μM ATP, 200 μM (RS)7 peptide, 4 nM GCN2, 25° C.
Outline: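 Transcreener ADP2 fluorescence polarization detection of ADP from 4 nM GCN2 with (RS)7 substrate in 25 mM Tris-HCl pH 7.5, 50 mM NaCl, 10 mM MgCl2, 1 mM DTT. Compound pre-incubated with enzyme 10 min at 25 °C; reaction started by ATP, run 1 h at 25 °C. IC50 and Ki(app) by tight-binding fit.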

[1] = molecular target: intracellular GCN2 (phosphorylation of the GCN2 substrate eIF2α) (Homo sapiens (Human), UniProt Q9P2K8); assay: GCN2 Cellular Inhibition Assay (AlphaScreen SureFire P-eIF2α Ser51, borrelidin-treated U2OS cells); format: cell-based; conditions: 10 μM borrelidin, 1 h, phosphorylated eIF2α Ser51, read-out: GCN2 Biomarker (IC50)
Outline: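 U2OS cells adhered overnight, then given compound (top 40 μM, 4-fold serial dilutions) plus 10 μM borrelidin for 1 h at 37 °C. Lysates assayed for eIF2α phospho-Ser51 by AlphaScreen SureFire; % inhibition versus borrelidin-only wells.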

Chain of GCN2 kinase (Q9P2K8 whole entry): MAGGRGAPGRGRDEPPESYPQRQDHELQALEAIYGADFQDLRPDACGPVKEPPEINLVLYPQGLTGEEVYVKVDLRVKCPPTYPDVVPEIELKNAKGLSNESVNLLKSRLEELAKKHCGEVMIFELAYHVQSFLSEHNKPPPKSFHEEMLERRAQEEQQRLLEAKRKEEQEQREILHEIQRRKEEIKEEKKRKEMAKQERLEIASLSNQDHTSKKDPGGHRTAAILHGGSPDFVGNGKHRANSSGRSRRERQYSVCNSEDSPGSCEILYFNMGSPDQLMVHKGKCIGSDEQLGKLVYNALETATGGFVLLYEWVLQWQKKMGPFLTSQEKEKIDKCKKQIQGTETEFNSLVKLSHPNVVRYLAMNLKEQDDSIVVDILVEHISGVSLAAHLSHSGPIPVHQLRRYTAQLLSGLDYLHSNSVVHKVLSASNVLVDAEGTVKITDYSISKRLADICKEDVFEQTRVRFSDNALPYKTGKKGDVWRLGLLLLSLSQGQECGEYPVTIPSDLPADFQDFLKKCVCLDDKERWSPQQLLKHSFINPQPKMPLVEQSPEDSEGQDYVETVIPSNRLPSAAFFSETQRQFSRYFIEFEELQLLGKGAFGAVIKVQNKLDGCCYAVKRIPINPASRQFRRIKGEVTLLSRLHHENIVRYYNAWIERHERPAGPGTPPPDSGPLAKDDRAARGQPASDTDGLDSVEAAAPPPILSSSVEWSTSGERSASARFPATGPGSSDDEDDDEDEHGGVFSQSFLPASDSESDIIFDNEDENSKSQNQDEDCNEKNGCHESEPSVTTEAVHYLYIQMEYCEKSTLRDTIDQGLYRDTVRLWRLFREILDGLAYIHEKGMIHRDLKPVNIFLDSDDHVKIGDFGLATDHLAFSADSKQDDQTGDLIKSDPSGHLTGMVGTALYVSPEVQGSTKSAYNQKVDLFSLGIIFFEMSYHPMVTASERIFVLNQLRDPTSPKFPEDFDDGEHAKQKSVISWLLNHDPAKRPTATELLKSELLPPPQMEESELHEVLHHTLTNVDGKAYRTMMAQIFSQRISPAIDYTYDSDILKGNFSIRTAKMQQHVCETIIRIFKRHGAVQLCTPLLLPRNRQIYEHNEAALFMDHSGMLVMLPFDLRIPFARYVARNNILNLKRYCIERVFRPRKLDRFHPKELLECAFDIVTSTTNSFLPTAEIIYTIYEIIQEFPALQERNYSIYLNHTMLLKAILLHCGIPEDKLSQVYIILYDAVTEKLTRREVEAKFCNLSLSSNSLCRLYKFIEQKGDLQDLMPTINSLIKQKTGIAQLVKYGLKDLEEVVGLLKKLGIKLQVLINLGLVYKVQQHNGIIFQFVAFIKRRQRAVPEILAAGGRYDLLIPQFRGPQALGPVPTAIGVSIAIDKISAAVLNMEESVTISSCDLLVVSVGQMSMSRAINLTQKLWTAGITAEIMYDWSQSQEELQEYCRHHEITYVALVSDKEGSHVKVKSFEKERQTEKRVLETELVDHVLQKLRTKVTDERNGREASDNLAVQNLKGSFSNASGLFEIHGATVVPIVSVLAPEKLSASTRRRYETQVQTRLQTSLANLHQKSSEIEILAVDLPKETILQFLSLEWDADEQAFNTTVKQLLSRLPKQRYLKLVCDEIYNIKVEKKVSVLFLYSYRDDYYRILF
Chain of intracellular GCN2 (phosphorylation of the GCN2 substrate eIF2α) (Q9P2K8 whole entry): as above

IC50 (GCN2 kinase) [nM] | IC50 [1] [nM] | SMILES
10 to 100 | 500 to 5000 | O=C(O)C1(C2CCCN(c3ccnc(-c4cnc5ccc(Cl)cn45)n3)C2)CC1 (stereo not shown) [I-297, 1-(1-(2-(6-chloroimidazo[1,2-a]pyridin-3-yl)pyrimidin-4-yl)piperidin-3-yl)cyclopropane-1-carboxylic acid]
100 to 1000 | > 5000 | O=C(O)CC1CN(c2ccnc(-c3cnc4ccc(Cl)cn34)n2)CCO1 (stereo not shown) [I-298, 2-(4-(2-(6-chloroimidazo[1,2-a]pyridin-3-yl)pyrimidin-4-yl)morpholin-2-yl)acetic acid]
10 to 100 | 500 to 5000 | NC(=O)C1(C2CCCN(c3ccnc(-c4cnc5ccc(Cl)cn45)n3)C2)CC1 (stereo not shown) [I-303, 1-(1-(2-(6-chloroimidazo[1,2-a]pyridin-3-yl)pyrimidin-4-yl)piperidin-3-yl)cyclopropane-1-carboxamide]
10 to 100 | 500 to 5000 | NC(=O)C1CN(c2ccnc(-c3cnc4ccc(C(F)(F)F)cn34)n2)CCN1C1CC1 (stereo not shown) [I-311, 1-cyclopropyl-4-(2-(6-(trifluoromethyl)imidazo[1,2-a]pyridin-3-yl)pyrimidin-4-yl)piperazine-2-carboxamide]
10 to 100 | 500 to 5000 | CS(=O)(=O)c1ccc2ncc(-c3nccc(N4CCCC(c5cn[nH]c5)C4)n3)n2c1 (stereo not shown) [I-313, 3-(4-(3-(1H-pyrazol-4-yl)piperidin-1-yl)pyrimidin-2-yl)-6-(methylsulfonyl)imidazo[1,2-a]pyridine]
100 to 1000 | > 5000 | O=S(=O)(NC1CC1)c1ccc2ncc(-c3nccc(N4CCCC(c5cn[nH]c5)C4)n3)n2c1 (stereo not shown) [I-318, 3-(4-(3-(1H-pyrazol-4-yl)piperidin-1-yl)pyrimidin-2-yl)-N-cyclopropylimidazo[1,2-a]pyridine-6-sulfonamide]
10 to 100 | 500 to 5000 | NS(=O)(=O)c1ccc2ncc(-c3nccc(N4CCCC(c5cn[nH]c5)C4)n3)n2c1 (stereo not shown) [I-320, 3-(4-(3-(1H-pyrazol-4-yl)piperidin-1-yl)pyrimidin-2-yl)imidazo[1,2-a]pyridine-6-sulfonamide]
100 to 1000 | > 5000 | NC(=O)[C@@H]1CN(c2ccnc(-c3cnc4ccc(C(F)(F)F)cn34)n2)CCN1C1CC1 [I-324, (S)-1-cyclopropyl-4-(2-(6-(trifluoromethyl)imidazzo[1,2-a]pyridin-3-yl)pyrimidin-4-yl)piperazine-2-carboxamide]

More lines, now with the values behind:

SMILES | IC50 (GCN2 kinase) [nM] | IC50 [1] [nM]
C[C@@H]1C[C@H](N=S(C)(C)=O)CN(c2ccnc(-c3cnc4ccc(OC(F)(F)F)cn34)n2)C1 [I-290, dimethyl(((3 S,5R)-5-methyl-1-(2-(6-(trifluoromethoxy)imidazo[1,2-a]pyridin-3-yl)pyrimidin-4-yl)piperidin-3-yl)imino)-λ6-sulfanone] | 10 to 100 | 500 to 5000
C[C@@H]1C[C@H](N=S(C)(C)=O)CN(c2ccnc(-c3cnc4ccc(OC(F)F)cn34)n2)C1 [I-291, dimethyl(((3 S,5R)-5-methyl-1-(2-(6-(difluoromethoxy)imidazo[1,2-a]pyridin-3-yl)pyrimidin-4-yl)piperidin-3-yl)imino)-λ6-sulfanone] | 10 to 100 | 500 to 5000
CC1(C)CN(c2ccnc(-c3cnc4ccc(C(F)(F)F)cn34)n2)CC2(CNC2)O1 [I-294, 6,6-dimethyl-8-(2-(6-(trifluoromethyl)imidazo[1,2-a]pyridin-3-yl)pyrimidin-4-yl)-5-oxa-2,8-diazaspiro[3.5]nonane] | 100 to 1000 | > 5000
O=C1NC[C@@]12CCCN(c1ccnc(-c3cnc4ccc(C(F)(F)F)cn34)n1)C2 [I-295, (R)-6-(2-(6-(trifluoromethyl)imidazo[1,2-a]pyridin-3-yl)pyrimidin-4-yl)-2,6-diazaspiro[3.5]nonan-1-one] | 10 to 100 | 500 to 5000
C[C@@H]1C[C@H](N=S(C)(C)=O)CN(c2ccnc(-c3cnc4ccc(C5CC5)cn34)n2)C1 [I-300, (((3 S,5R)-1-(2-(6-cyclopropylimidazo[1,2-a]pyridin-3-yl)pyrimidin-4-yl)-5-methylpiperidin-3-yl)imino)dimethyl-λ6-sulfanone] | 10 to 100 | 500 to 5000
CC1CN(c2ccnc(-c3cnc4ccc(Cl)cn34)n2)CC(c2cnn(S(C)(=O)=O)c2)N1S(C)(=O)=O (stereo not shown) [I-301, 6-chloro-3-(4-(3-methyl-4-(methylsulfonyl)-5-(1-(methylsulfonyl)-1H-pyrazol-4-yl)piperazin-1-yl)pyrimidin-2-yl)imidazo[1,2-a]pyridine] | 100 to 1000 | 500 to 5000
Cc1n[nH]cc1C1CC(O)CN(c2ccnc(-c3cnc4ccc(Cl)cn34)n2)C1 (stereo not shown) [I-302, 1-(2-(6-chloroimidazo[1,2-a]pyridin-3-yl)pyrimidin-4-yl)-5-(3-methyl-1H-pyrazol-4-yl)piperidin-3-ol] | < 10 | < 500
CC1(C)CN(c2ccnc(-c3cnc4ccc(C(F)(F)F)cn34)n2)CC2(CN(S(C)(=O)=O)C2)O1 [I-304, 6,6-dimethyl-2-(methylsulfonyl)-8-(2-(6-(trifluoromethyl)imidazo[1,2-a]pyridin-3-yl)pyrimidin-4-yl)-5-oxa-2,8-diazaspiro[3.5]nonane] | 10 to 100 | 500 to 5000
Cc1[nH]ncc1[C@H]1C[C@H](O)CN(c2ccnc(-c3cnc4ccc(C(F)(F)F)cn34)n2)C1 [I-307, (3 S, 5R)-5-(5-methyl-1H-pyrazol-4-yl)-1-(2-(6-(trifluoromethyl)imidazo[1,2-a]pyridin-3-yl)pyrimidin-4-yl)piperidin-3-ol] | 10 to 100 | 500 to 5000
Cc1[nH]ncc1[C@@H]1C[C@@H](O)CN(c2ccnc(-c3cnc4ccc(C(F)(F)F)cn34)n2)C1 [I-308, (3R,5S)-5-(5-methyl-1H-pyrazol-4-yl)-1-(2-(6-(trifluoromethyl)imidazo[1,2-a]pyridin-3-yl)pyrimidin-4-yl)piperidin-3-ol] | 10 to 100 | 500 to 5000
CC1[C@@H](c2cn[nH]c2)NCCN1c1ccnc(-c2cnc3ccc(C(F)(F)F)cn23)n1 (stereo partly drawn) [I-310, 3-(4-((3R)-2-methyl-3-(1H-pyrazol-4-yl)piperazin-1-yl)pyrimidin-2-yl)-6-(trifluoromethyl)imidazo[1,2-a]pyridine] | < 10 | < 500
NC(=O)[C@H]1C[C@H](O)CN(c2nccc(-c3cnc4ccc(Cl)cn34)n2)C1 [I-316, (3 S,5S)-1-(4-(6-chloroimidazo[1,2-a]pyridin-3-yl)pyrimidin-2-yl)-5-hydroxypiperidine-3-carboxamide] | < 10 | < 500
C[C@@H]1C[C@H](N=S(C)(C)=O)CN(c2ccnc(-c3cnc4cc(F)c(Br)cn34)n2)C1 [I-317, (((3 S,5R)-1-(2-(6-bromo-7-fluoroimidazo[1,2-a]pyridin-3-yl)pyrimidin-4-yl)-5-methylpiperidin-3-yl)imino)dimethyl-λ6-sulfanone] | 10 to 100 | 500 to 5000
Cc1[nH]ncc1C1NCCN(c2ccnc(-c3cnc4ccc(C(F)(F)F)cn34)n2)C1C (stereo not shown) [I-321, 3-(4-(2-methyl-3-(5-methyl-1H-pyrazol-4-yl)piperazin-1-yl)pyrimidin-2-yl)-6-(trifluoromethyl)imidazo[1,2-a]pyridine] | 10 to 100 | 500 to 5000
CC1C(c2cn[nH]c2)N(C2COC2)CCN1c1ccnc(-c2cnc3ccc(C(F)(F)F)cn23)n1 (stereo not shown) [I-322, 4-[2-methyl-4-(oxetan-3-yl)-3-(1H-pyrazol-4-yl)piperazin-1-yl]-2-[6-(trifluoromethyl)imidazo[1,2-a]pyridin-3-yl]pyrimidine] | 10 to 100 | < 500
